Experiments:
KDR (h) (VEGFR2) = KDR (h) (VEGFR2) (Homo sapiens (Human), UniProt P35968); test: KDR (VEGFR2) (enzymatic assay), TR-FRET; format: biochemical; settings: 3 μM ATP; read-out: VEGFR KDR pIC50 (converted)
[1] = test system: Ba/F3-FGFR1-transfected cells; test: cells; settings: read-out: BAF3-FGFR1 (MIN IL3 pIC50) (converted)
[2] = test system: Ba/F3-FGFR4-transfected cells; test: cells; settings: read-out: BAF3-FGFR4 (pIC50) (converted)
[3] = test system: Ba/F3-KDR-transfected cells; test: cells; settings: read-out: BAF3-KDR (MIN IL3 pIC50) (converted)

Sequence of KDR (h) (VEGFR2) (P35968 20-1356): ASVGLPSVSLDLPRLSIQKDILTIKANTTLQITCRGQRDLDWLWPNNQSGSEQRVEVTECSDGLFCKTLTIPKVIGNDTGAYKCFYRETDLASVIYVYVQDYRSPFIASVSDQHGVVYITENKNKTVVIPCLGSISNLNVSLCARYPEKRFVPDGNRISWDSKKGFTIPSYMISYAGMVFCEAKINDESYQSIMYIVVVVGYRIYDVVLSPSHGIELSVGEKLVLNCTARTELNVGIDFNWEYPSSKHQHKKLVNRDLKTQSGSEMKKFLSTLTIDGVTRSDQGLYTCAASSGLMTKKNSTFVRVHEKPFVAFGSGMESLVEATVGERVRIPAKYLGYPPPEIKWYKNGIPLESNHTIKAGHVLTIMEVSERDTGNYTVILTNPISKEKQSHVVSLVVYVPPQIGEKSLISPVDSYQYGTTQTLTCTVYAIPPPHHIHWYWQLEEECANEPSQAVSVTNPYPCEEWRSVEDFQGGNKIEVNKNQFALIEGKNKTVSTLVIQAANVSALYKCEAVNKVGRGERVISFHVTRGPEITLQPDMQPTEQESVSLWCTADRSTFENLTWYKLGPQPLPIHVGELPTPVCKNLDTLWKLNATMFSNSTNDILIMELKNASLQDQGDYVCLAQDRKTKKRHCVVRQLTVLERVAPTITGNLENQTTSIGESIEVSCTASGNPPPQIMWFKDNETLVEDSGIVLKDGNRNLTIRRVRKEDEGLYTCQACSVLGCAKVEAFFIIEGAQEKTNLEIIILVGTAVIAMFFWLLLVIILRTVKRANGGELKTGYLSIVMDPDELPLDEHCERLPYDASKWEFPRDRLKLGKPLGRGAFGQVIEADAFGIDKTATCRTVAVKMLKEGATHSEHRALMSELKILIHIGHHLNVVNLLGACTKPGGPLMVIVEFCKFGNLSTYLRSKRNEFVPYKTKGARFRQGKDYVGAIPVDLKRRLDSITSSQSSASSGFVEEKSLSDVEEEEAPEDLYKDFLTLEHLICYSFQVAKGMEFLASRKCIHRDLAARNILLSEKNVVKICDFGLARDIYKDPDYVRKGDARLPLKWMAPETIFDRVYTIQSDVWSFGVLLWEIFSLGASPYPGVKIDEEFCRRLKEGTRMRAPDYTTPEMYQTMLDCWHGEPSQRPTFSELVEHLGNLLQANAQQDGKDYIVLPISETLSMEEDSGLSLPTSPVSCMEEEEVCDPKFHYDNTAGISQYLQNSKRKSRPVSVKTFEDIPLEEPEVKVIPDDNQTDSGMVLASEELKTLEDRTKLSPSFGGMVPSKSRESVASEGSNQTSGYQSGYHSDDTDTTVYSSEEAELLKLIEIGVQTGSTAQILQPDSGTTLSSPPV

**Q.** With `COc1cc(OC)c(F)c(N(Cc2nccn2S(=O)(=O)N(C)C)c2ncc3ncc(-c4cnn(C)c4)nc3n2)c1F` [Compound 1] as the molecule, how does the IC50 (KDR (h) (VEGFR2)) read?
**A.** 100 nM

**Q.** With `COc1cc(OC)c(F)c(N(Cc2ncc[nH]2)c2ncc3ncc(-c4cnn(C)c4)nc3n2)c1F` [Compound 2] as the molecule, how does the IC50 [1] read?
**A.** 6.31 nM

**Q.** What about the IC50 [2] of the same molecule?
**A.** 25.1 nM

**Q.** And the IC50 (KDR (h) (VEGFR2))?
**A.** 25.1 nM

**Q.** What does the source list for `COc1cc(OC)cc(N(CCO)c2ncc3ncc(-c4cnn(C)c4)nc3n2)c1` [Compound 3]?
**A.** IC50 [3]: > 10000 nM; IC50 (KDR (h) (VEGFR2)): > 1000 nM

**Q.** How did the IC50 [3] turn out when `COc1cc(OC)cc(N(CCO)c2ncc3ncc(-c4ccccc4)nc3n2)c1` [Compound 4] was run?
**A.** > 10000 nM

**Q.** What does the source list for `COc1cc(OC)cc(N(CC2CC2)c2ncc3ncc(-c4ccccc4)nc3n2)c1` [Compound 7]?
**A.** IC50 [3]: > 10000 nM; IC50 (KDR (h) (VEGFR2)): > 1000 nM

**Q.** Which IC50 [3] does the source give for `COc1cc(OC)c(F)c(N(C[C@@H]2CCC(=O)N2)c2ncc3ncc(-c4cnn(C)c4)nc3n2)c1F` [Compound 8] here?
**A.** > 10000 nM

**Q.** And the IC50 (KDR (h) (VEGFR2))?
**A.** 794 nM

**Q.** For `CNCCN(c1ncc2ncc(-c3cnn(C)c3)nc2n1)c1c(F)c(OC)cc(OC)c1F` [Compound 9], which IC50 [3] is on record?
**A.** 2510 nM

**Q.** What about the IC50 (KDR (h) (VEGFR2)) of the same molecule?
**A.** 398 nM

**Q.** For `COc1cc(OC)c(F)c(N(C[C@H]2CCC(=O)N2)c2ncc3ncc(-c4cnn(C)c4)nc3n2)c1` [Compound 10], which IC50 (KDR (h) (VEGFR2)) is on record?
**A.** 1000 nM

**Q.** How did the IC50 (KDR (h) (VEGFR2)) turn out when `COc1cc(OC)c(F)c(N(C[C@@H]2CCC(=O)N2)c2ncc3ncc(-c4cnn(C)c4)nc3n2)c1` [Compound 11] was run?
**A.** > 1000 nM

**Q.** For `COc1cc(OC)c(F)c(N(Cc2ncc[nH]2)c2ncc3ncc(-c4cnn(C)c4)nc3n2)c1` [Compound 13], which IC50 (KDR (h) (VEGFR2)) is on record?
**A.** 251 nM
